# Patent publication US20260265240A1, “PREPARATION METHOD FOR SALT FORM AND CRYSTAL FORM OF 2,6-PIPERIDINEDIONE COMPOUND AND USE THEREOF” (ZHANGZHOU PIEN TZE HUANG PHARMACEUTICAL CO., LTD., priority 2023, published 2026)
# Where a name gives a salt, the structure may show the parent alone.
# How the values were obtained:
# [1] = Pharmacokinetic evaluation in beagle dogs; assay type: in vivo; conditions: male, dog, plasma, intravenous injection 0.5 mg/kg, fed
# Method: Male beagle dogs were selected as the experimental animals in this study.
# Beagle dogs (male, 7 to 10 kg, Beijing Mars Biotechnology Co., Ltd.).
# A clear solution of the test compound was slowly injected intravenously into beagle dogs (fed) via the peripheral vein (vehicle: […]/10% Solutol/85% H2O), or administered intragastrically to beagle dogs (fed). For intravenous administration, 0.5 mL of blood was collected from the peripheral vein at 0.083, 0.25, 0.5, 1, 2, 4, 6, 8, and 24 h after administration, placed in EDTA-2K anticoagulant tubes, and centrifuged at 3200 g for 10 minutes at 2 to 8° C. to separate the supernatant. For intragastric administration, 0.5 mL of blood was collected from the peripheral vein at 0.083, 0.25, 0.5, 1, 2, 4, 6, 8, and 24 h after administration, placed in EDTA-2K anticoagulant tubes, and centrifuged at 3200 g for 10 minutes at 2 to 8° C. to separate the supernatant. Plasma drug concentrations were determined by the LC-MS/MS method, and relevant pharmacokinetic parameters were calculated using Phoenix WinNonlin 6.3 pharmacokinetic software with non-compartmental model linear-log trapezoidal method.
# [2] = Pharmacokinetic evaluation in mice; assay type: in vivo, C57BL/6 or C57 mice; conditions: male, C57BL/6, mouse, plasma, intravenous injection 2 mg/kg, fasted, read-out: Apparent Volume of Distribution
# Text: C57BL/6 or C57 male mice were selected as the test animals for this study. The LC/MS/MS method was employed to quantitatively determine the plasma drug concentrations at various time points after intravenous injection or intragastric administration of the test compound, aiming to evaluate the pharmacokinetic characteristics of the compound of the present disclosure in mice.
# C57BL/6 or C57 mice (male, 20 to 30 g, 7 to 10 weeks old, Beijing Vital River).
# A clear solution of the test compound was injected intravenously into the tail vein of C57BL/6 mice (fasted overnight) (vehicle: 10% DMSO/10% solutol/80% H2O), or administered intragastrically to C57 mice (fed). […] The mixture was thoroughly vortexed and mixed, and centrifuged at 6000 g for 3 minutes at 2 to 8° C. […] The mixture was thoroughly vortexed and mixed, and centrifuged at 6000 g for 3 minutes at 2 to 8° C. Plasma drug concentrations were determined by the LC-MS/MS method, and relevant pharmacokinetic parameters were calculated using Phoenix WinNonlin 8.2.0 pharmacokinetic software with non-compartmental model linear-log trapezoidal method.
smiles,measurement,setting,value
O=C1CCC(c2noc3ccc4c(NC(=O)CN5CCN(C[C@H]6CC[C@H](n7cc(NC(=O)c8coc(-c9ccnc(NCC%10CC%10)c9)n8)c(C(F)F)n7)CC6)CC5)cccc4c23)C(=O)N1 (stereo partly drawn) [Hydrochloride of Compound of Formula (I)],clearance,[1],21.3 mL/min/kg
same,half-life,[1]; read-out: Elimination Half-Life (converted),5.03 h
same,Vd,[2],1.6 L/kg
